What was measured:
mouse = conditions: cited from earlier work
[1] = frequent use and overdosing; cited from earlier work
[2] = Tasting of the substance in 11% sugar solution by a group of testers (sensory profile); assay type: in vivo; conditions: for sensory profile (tasting): approx. 5 ml swallowed, 6 to 8 testers; for flavour impression in sensory testing: concentration not given
Protocol: The substance to be tasted is dissolved in ethanol and the ethanolic solution then diluted with an 11% sugar solution (final concentration: c). Approx. 5 ml of the sugar solution at a time are swallowed for the tasting. If the threshold value of the substance is known, a value just above the threshold value is chosen for the tasting. A group of 6 to 8 testers tasted the solutions.

[3] = capsaicin as reference; cited from earlier work

Row | Structure (SMILES) | sensory profile (tasting) ([2]; c=10 ppm in 11% sugar solution) | flavour impression in sensory testing [2] | also measured
1 | COc1cc(CNC(=O)CCCC/C=C/C(C)C)ccc1O [capsaicin, N-(4-hydroxy-3-methoxybenzyl)-8-methyl-(6E)-nonenoic acid amide] |  |  | LD50 (mouse oral) (mouse): 47 mg; chronic toxicity [1]: chronic gastritis, kidney and liver damage
2 | CCCCC/C=C\C=C\C(=O)NCC(C)C [cis-pellitorine, 2E,4Z-decadienoic acid-N-isobutylamide] | pronounced feeling of warmth, immediately pungent, typical alcohol pungency | pleasant, extremely pungent and warm flavour impression, which is reminiscent of ethanol and is relatively long lasting | 
3 | COc1cc(CNC(=O)CCCCCCC(C)C)ccc1O [dihydrocapsaicin] |  |  | sensory profile (tasting) ([2]; c=100 ppb in 11% sugar solution): slightly delayed onset of effect in the pharynx, burning, aggressive, no heat development
4 | O=C(/C=C/C=C/c1ccc2c(c1)OCO2)N1CCCCC1 [piperine, 1-piperoyl piperidine] |  |  | relative pungency in comparison to capsaicin [3]: approx. 1%
5 | CCCCC/C=C/C=C/C(=O)NCC(C)C [trans-pellitorine, 2E,4E-decadienoic acid-N-isobutylamide] | saliva-stimulating, oily, fruity, slightly tingling, not pungent | primarily numbing | 
